Results reported in ChEMBL document CHEMBL1201862, “PubChem BioAssay data set” (2004).
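Five concentrations, 48 hours, 96-well plates. GI50 = concentration required for 50% inhibition of growth.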 Activity calls are given as the source filed them. Cut-off read from the data, not from the text of the source: active = GI50 up to about 1.1 µM and inactive = higher.

How the values were obtained:
Assay in all cases: growth of human tumour cells (NCI), 48 h
NCI-H226 = test system: NCI-H226
SK-MEL-5 = test system: SK-MEL-5
Malme-3M = test system: Malme-3M
SF-295 = test system: SF-295
SW-620 = test system: SW-620
MOLT-4 = test system: MOLT-4
MDA-MB-231 = test system: MDA-MB-231
U-251 = test system: U-251
NCI-H522 = test system: NCI-H522
K562 = test system: K562
SR = test system: SR
MDA-N = test system: MDA-N
786-0 = test system: 786-0
RXF 393 = test system: RXF 393
HT-29 = test system: HT-29
OVCAR-8 = test system: OVCAR-8
HCC 2998 = test system: HCC 2998
KM12 = test system: KM12
MCF7 = test system: MCF7
SNB-75 = test system: SNB-75

| Structure (SMILES) | GI50 (NCI-H226) | GI50 (SK-MEL-5) | GI50 (Malme-3M) | GI50 (SF-295) | GI50 (SW-620) | GI50 (MOLT-4) | GI50 (MDA-MB-231) | GI50 (U-251) | GI50 (NCI-H522) | GI50 (K562) | GI50 (SR) | GI50 (MDA-N) | GI50 (786-0) | GI50 (RXF 393) | GI50 (HT-29) | GI50 (OVCAR-8) | GI50 (HCC 2998) | GI50 (KM12) | GI50 (MCF7) | GI50 (SNB-75) |
| --- | --- | --- | --- | --- | --- | --- | --- | --- | --- | --- | --- | --- | --- | --- | --- | --- | --- | --- | --- | --- |
| CSc1nc(=O)c(C#N)c(-c2ccccc2)n1C1OC(COC(C)=O)C(OC(C)=O)C(OC(C)=O)C1OC(C)=O (stereo not given) | > 100 µM (inactive) | 81.7 µM (inactive) | 69.3 µM (inactive) | > 100 µM (inactive) | > 100 µM (inactive) | > 100 µM (inactive) | > 100 µM (inactive) | > 100 µM (inactive) | > 100 µM (inactive) | > 100 µM (inactive) | > 100 µM (inactive) | > 100 µM (inactive) | 82.6 µM (inactive) | 94.4 µM (inactive) | > 100 µM (inactive) | 60.5 µM (inactive) | > 100 µM (inactive) | > 100 µM (inactive) | > 100 µM (inactive) | 42.5 µM (inactive) |
| COc1ccc(/C=C/NC=O)cc1 | > 100 µM (inactive) | > 100 µM (inactive) | > 100 µM (inactive) | > 100 µM (inactive) | > 100 µM (inactive) | > 100 µM (inactive) | 89.5 µM (inactive) | > 100 µM (inactive) | > 100 µM (inactive) | > 100 µM (inactive) | > 100 µM (inactive) | > 100 µM (inactive) | > 100 µM (inactive) | > 100 µM (inactive) | > 100 µM (inactive) | > 100 µM (inactive) | > 100 µM (inactive) | > 100 µM (inactive) | > 100 µM (inactive) | 18.1 µM (inactive) |
| CN(C)CC1CN/C(=N\C(=O)Nc2ccccc2)O1 (stereo not given) | > 100 µM (inactive) | > 100 µM (inactive) | > 100 µM (inactive) | > 100 µM (inactive) | > 100 µM (inactive) | > 100 µM (inactive) | > 100 µM (inactive) | > 100 µM (inactive) | > 100 µM (inactive) | > 100 µM (inactive) | > 100 µM (inactive) | > 100 µM (inactive) | > 100 µM (inactive) | > 100 µM (inactive) | > 100 µM (inactive) | > 100 µM (inactive) | > 100 µM (inactive) | > 100 µM (inactive) | > 100 µM (inactive) | > 100 µM (inactive) |
| C=CCOc1ccc(C2C(C(=O)OCC)C(=O)CC(C)(O)C2C(=O)OCC)cc1OC (stereo not given) | > 100 µM (inactive) | > 100 µM (inactive) | > 100 µM (inactive) | > 100 µM (inactive) | > 100 µM (inactive) | > 100 µM (inactive) | > 100 µM (inactive) | > 100 µM (inactive) | > 100 µM (inactive) | > 100 µM (inactive) | > 100 µM (inactive) | > 100 µM (inactive) | > 100 µM (inactive) | > 100 µM (inactive) | > 100 µM (inactive) | > 100 µM (inactive) | > 100 µM (inactive) | > 100 µM (inactive) | > 100 µM (inactive) | > 100 µM (inactive) |
| CCOC(=O)Oc1cc2c(c(OC)c1OC)-c1ccc(OC)c(=O)cc1C(NC(C)=O)CC2 (stereo not given) | 0.183 µM (active) | 0.0116 µM (active) | < 0.015 µM (active) | 0.0574 µM (active) | < 0.0122 µM (active) | 0.0179 µM (active) | 0.0281 µM (active) | 0.0212 µM (active) | 0.014 µM (active) | 0.0138 µM (active) | < 0.01 µM (active) | < 0.01 µM (active) | 0.0345 µM (active) | < 0.0137 µM (active) | 0.0187 µM (active) | 0.0286 µM (active) | 0.0176 µM (active) | 0.0172 µM (active) | < 0.01 µM (active) | 0.0119 µM (active) |
| O=C(Nc1ccccc1)N(CCCCN(Cc1ccccc1)C(=O)Nc1ccccc1)Cc1ccccc1 | > 100 µM (inactive) | > 100 µM (inactive) | > 100 µM (inactive) | > 100 µM (inactive) | > 100 µM (inactive) | 52.7 µM (inactive) | 48.6 µM (inactive) | > 100 µM (inactive) | 95.3 µM (inactive) | 30.8 µM (inactive) | 44.3 µM (inactive) | > 100 µM (inactive) | 95.3 µM (inactive) | 43.8 µM (inactive) | 74.5 µM (inactive) | > 100 µM (inactive) | > 100 µM (inactive) | > 100 µM (inactive) | 92 µM (inactive) | 27.7 µM (inactive) |
| CCCN(CCC)C(=S)Sc1nc(C)nc(N2CCN(c3nc(C)nc(SC(=S)N(CCC)CCC)c3[N+](=O)[O-])CC2)c1[N+](=O)[O-] | 21.8 µM (inactive) | 3.16 µM (inactive) | 18.8 µM (inactive) | 24.9 µM (inactive) | 3.53 µM (inactive) | 3.23 µM (inactive) | 7.69 µM (inactive) | 6.5 µM (inactive) | 0.316 µM (active) | 1.11 µM (active) | 1.07 µM (active) | 8.45 µM (inactive) | 3.62 µM (inactive) | 4.19 µM (inactive) | 2.07 µM (inactive) | 5.5 µM (inactive) | 16.5 µM (inactive) | 14.2 µM (inactive) | 0.248 µM (active) | 27.5 µM (inactive) |
